Several values for one entry are separate records, joined by “and”; a condition that tells them apart may be missing. Equal entries are not always repeated.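 96-well plates; 48 h exposure; 5 concentrations. Endpoints by linear interpolation between flanking doses. Not reached: highest tested concentration assigned. GI50 = concentration required for 50% inhibition of growth. TGI is the concentration that stops growth completely.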
tested on: MDA-MB-468 breast; test: DTP human tumour cell line panel, 48 h

SMILES	GI50	TGI
COc1ccc2[nH]c(C(=O)N3CCN(C(=O)OCc4ccc5c(Br)cc(Br)c(O)c5n4)CC3)cc2c1	0.209 µM	0.506 µM
CCCCCC/C=C\CCCCCCCCCc1cc(O)cc(OC)c1O	0.296 µM	0.828 µM
NCCOc1ncccc1/C=C1\C2C=CC=CC2C2C=CC(F)=CC12 (stereo unspecified)	0.483 µM	2.01 µM
c1cc2ccc3cc2cc1CNCCN1CCNCc2ccc4ccc(cc4c2)CNCCN(CCNC3)CCNCc2ccc3ccc(cc3c2)CNCC1	2.01 µM	4 µM
CCCOc1cc2c(cc1O)CC[C@@H]1[C@@H]2CC[C@]2(C)[C@@H](O)CC[C@@H]12	2.8 µM	16.7 µM
NC(=O)[C@@H](CCC(F)(F)F)N(Cc1ccc(-c2ncon2)cc1F)S(=O)(=O)c1ccc(Cl)cc1	7.26 µM	> 100 µM
CCC(=O)Oc1cc(/C=C/C(=O)O[C@H]2C[C@H]3CN4CCc5c([nH]c6cc(OC)ccc56)[C@@H]4C[C@@H]3[C@@H](C(=O)OC)[C@@H]2OC)ccc1OC	4.76 µM	33.3 µM
Clc1ccc(CN2COc3c(ccc4cccnc34)C2)cc1Cl	0.543 µM	2.16 µM
O=c1cc(N2CCOCC2)oc2c(-c3ccc4c(c3)OCCO4)csc12	0.629 µM	3.75 µM
O=C(CCl)Nc1ccc2c(Nc3cc(O)ccc3Cl)ncnc2c1	2.29 µM	7.68 µM
O=C1N=C(c2c(-c3[nH]c(=O)c4ccc(Br)cc4c3O)c(O)c3ccccc3c2O)C(=O)c2cc(Br)ccc21	0.412 µM	1.49 µM
N#CCCN1C/C(=C/c2ccccc2)C(=O)/C(=C/c2ccccc2)C1	1.68 µM	3.78 µM
CCCCCCCCNC(=O)c1ccc(Cn2c(CCCC)nc3c(N)nc4ccccc4c32)cc1	1.38 µM	3.06 µM
Cc1ccc(S(=O)(=O)Oc2ccccc2-c2ccccc2)cc1	0.866 µM	4.22 µM
O=c1c2sc3ccccc3c2nnn1-c1ccc(F)c(Cl)c1	12.8 µM	99.5 µM
Cc1ccncc1N1CCN(c2ccnc(Cl)c2)C1=O	> 100 µM	> 100 µM
C=CCCCC(=O)CCC(=O)OCC1O[C@@H](O[C@@H]2C(O)[C@@H](OC(C)=O)C(C)O[C@H]2O[C@H](CC=C)CCCCC)C(O)[C@@H](OC(=O)/C(C)=C/C)[C@@H]1OC(=O)/C=C/c1ccccc1 (stereo partly specified)	0.0321 µM	1.22 µM
CC1=C2[C@H]3OC(=O)[C@@H](C)[C@@H]3CC[C@@]2(C)C=CC1=O	> 100 µM	> 100 µM
COc1cc(C(=O)/C=C/c2cc(-c3cc(OC)c(OC)c(OC)c3)n[nH]2)cc(OC)c1OC	1.15 µM	2.48 µM
COC(=O)c1ccc([C@H]2c3[nH]c4ccccc4c3C[C@H](C(=O)OC)N2C(=O)CCl)cc1	0.472 µM	1.9 µM
COc1ccc2nc(NC(=O)COc3cc(/C=C\c4cc(OC)c(OC)c(OC)c4)ccc3OC)sc2c1	2.29 µM	8.37 µM
CC(=O)Nc1nc(C)c(-c2csc(Nc3ccccc3)n2)s1	1.74 µM	9.01 µM

SMILES	GI50	TGI
Cn1cc(-c2ccc(-c3cn(C)c4ncccc34)[nH]2)c2cccnc21	1.79 µM	5.22 µM
O=C(O)c1cc2cc(OCc3ccccc3)ccc2[nH]1	> 100 µM	> 100 µM
COc1ccc(C(=O)NCCNc2nccc(-c3c(-c4ccc(F)cc4)nc4sccn34)n2)cc1	4.74 µM	41 µM
COc1ccc(C(=O)C2C(C#N)C(C#N)C3C=Cc4ccccc4N32)cc1 (stereo unspecified)	2.31 µM	> 100 µM
Nc1c(C(=O)Nc2ccccc2)sc2nc3c(cc12)C(O)CCC3 (stereo unspecified)	0.29 µM	> 100 µM
O=C(CC1(O)C(=O)N(Cc2ccccc2)c2ccc(Br)cc21)c1ccc(C(=O)NCC2CCC3(CC2)OOC2(CCCCC2)OO3)cc1 (stereo unspecified)	2.01 µM	6.72 µM
CCCCCCC/C(=N\N=C(N)N)c1ccc(O)cc1	1.3 µM	2.6 µM
CO/N=C/C=C\C(=O)N/C=C/C[C@H]1/C=C/[C@H](O)/C=C\C=C\c2cccc(O)c2C(=O)O1	0.286 µM and 0.187 µM	29.9 µM and 17.5 µM
COc1ccc2oc(=O)cc(C3c4ccc([nH]4)C(c4cc(=O)oc5ccc(OC)cc45)c4ccc([nH]4)C(c4cc(=O)oc5ccc(OC)cc45)c4ccc([nH]4)C(c4cc(=O)oc5ccc(OC)cc45)c4ccc3[nH]4)c2c1 (stereo unspecified)	0.401 µM	1.91 µM
COc1cnc2c(c1)C(=O)c1c-2n(CCCNCC2CC2)c(=O)c2cc(F)ccc12	0.316 µM	0.904 µM
CCCCCCCCCCCCCCNc1nc(C(=O)OCC)ncc1-c1ccc(C(F)(F)F)cc1	> 100 µM	> 100 µM
COC(=O)N1c2ccc3c(nc(Cc4ccccc4)n3[C@H]3CCC[C@H](C(=O)O)C3)c2CC[C@@H]1C	3.82 µM	> 100 µM
COc1ccc(C(=O)/C=C/c2ccc(OCc3ccc(Cl)cc3)cc2)cc1OC	40.6 µM	271 µM
O=C(Nc1ccc(-n2ccc3c(NC(=O)c4ccccc4)nccc32)cc1)c1cccc(C(F)(F)F)c1	1.2 µM	7.3 µM
N#Cc1c(-c2ccc(Cl)cc2)cc(-c2cc(O)ccc2O)nc1N	0.769 µM	3.72 µM
CS(C)(=O)=O	> 100000 µM	> 100000 µM
COc1ccc(NC(=O)c2sc3nc(C)c(C(=O)/C=C/c4ccccc4)cc3c2N)cc1	0.92 µM	2.03 µM
Cc1ccc2nc3ccccc3c(NCc3ccccc3)c2c1	1.52 µM	5.54 µM
Cn1ccnc1C(=O)/C=C/c1ccc(C(=O)Nc2ccccc2F)cc1	2.49 µM	8.3 µM
O=c1c2c3c(sc2n2c(CCl)nnc2n1Cc1ccccc1)CCCC3	1.77 µM	3.72 µM
O=C(N/N=C\c1cc(Cl)ccc1O)c1ccncc1	1.83 µM	9.82 µM
